Results as given in patent publication US20260374753A1, “NOVEL COMPOUND AND PREPARATION METHOD THEREFOR” (ASTRION INC., priority 2023, published 2026).

Columns and labels:
[1] = tested on: U87-MG; test: Matrigel Transwell invasion (metastasis inhibition) in human glioblastoma; assay type: cell-based; settings: 0, 1, 2, and 4 μM, 24 hours, compared to the untreated control
Method: A human glioblastoma cell line U87-MG was seeded at a density of 8×10^4 cells/well on Matrigel-coated filters (Transwell invasion chambers, Corning), and the cells were then treated with the compound (AON-MG23-01 or AON-MG23-02; each at 0, 1, 2, and 4 μM) of the present invention, and cultured at 37 °C in a CO2 incubator for 24 hours. After the culturing was completed, the cells were fixed and stained using the Diff-Quick Stain kit (Sysmex, Kobe, Japan). Images of the stained cells were taken under a microscope, the cells were counted using Image J software, and statistical analysis was then performed.

[2] = tested on: U87-MG cells; test: CCK assay of cell proliferation inhibition in human glioblastoma cells; assay type: cell-based; settings: 0, 1, 2, and 4 μM, 48 hours, 450 nm
Method: Human glioblastoma cell line U87-MG cells were seeded at a density of 1×10^4 cells/well in a 96-well plate and cultured for 24 hours. Thereafter, the cells were treated with DMSO as a control and the compound AON-MG23-01 or AON-MG23-02 of the present invention, and then cultured for 48 hours. The compound of the present invention was treated at various concentrations of 0, 1, 2, and 4 μM. 10 μL of a CCK reagent was added and reacted for an hour, and the absorbance was then measured at 450 nm.

[3] = tested on: U87-MG; test: Matrigel invasion comparison with EGFR inhibitor and ANO1 inhibitor in human glioblastoma; assay type: cell-based; settings: 4 μM AON-MG23-02, 16 hours, vs untreated, Osimertinib, 100 μM CaCCinh-A01
Method: A human glioblastoma cell line U87-MG was seeded at a density of 6×10^4 cells/well on the top of a Matrigel-coated filter (Transwell invasion chambers, Corning), treated with 4 μM of the compound AON-MG23-02 of the present invention, […] of the EGFR inhibitor Osimertinib, 100 μM of the ANO1 inhibitor CaCCinh-A01, or a combination of 4 μM of Osimertinib and 100 μM of CaCCinh-A01, and then cultured at 37 °C in a CO2 incubator for 16 hours. After the culturing was completed, the cells were fixed and stained using a Diff-Quick stain kit (Sysmex, Kobe, Japan). Images of the stained cells were taken under a microscope, the cells were counted using Image J software, and statistical analysis was then performed.

[4] = tested on: pEGFR; test: Western blot comparison with EGFR inhibitor and ANO1 inhibitor: pEGFR expression; assay type: cell-based, human; settings: U87-MG; 4 μM AON-MG23-02; 48 hours; vs untreated, 2 μM Osimertinib, 100 μM CaCCinh-A01, and their combination
Method: (§1) The inhibitory effects of the compound AON-MG23-02 of the present invention, the EGFR inhibitor Osimertinib, and the ANO1 inhibitor CaCCinh-A01 on the expression of ANO1, EGFR, and pEGFR proteins in a glioblastoma cell line were compared. A human glioblastoma cell line U87-MG was seeded at a density of 100×10^4 cells/dish in a 60 mm dish, and cultured for 24 hours. Thereafter, the cells were treated with 4 μM of AON-MG23-02, 2 μM of the EGFR inhibitor Osimertinib, 100 μM of the ANO1 inhibitor CaCCinh-A01, or a combination of 2 μM of Osimertinib and 100 μM of CaCCinh-A01, and cultured for 48 hours. The cultured cells were harvested and the harvested cells were lysed for Western blotting. An anti-ANO1 antibody (Abcam, ab53212), an anti-pEGFR antibody (Cell Signaling, #4407S), an anti-EGFR antibody (Cell Signaling, #4267S), and an anti-ACTIN antibody (sigma, #A2066) were used as antibodies for Western blotting. Protein concentration was quantified using the BSA method (a protein quantitation assay, a bovine serum albumin assay) (Pierce, Cat. 23225). […] The amount of each protein was quantified and analyzed using Image J software.

[5] = tested on: ANO1; test: Western blot comparison with EGFR inhibitor and ANO1 inhibitor: ANO1 expression; assay type: cell-based, human; settings: U87-MG; 4 μM AON-MG23-02; 48 hours; vs untreated, 2 μM Osimertinib, 100 μM CaCCinh-A01, and their combination
Method: as §1

[6] = tested on: EGFR; test: Western blot comparison with EGFR inhibitor and ANO1 inhibitor: EGFR expression; assay type: cell-based, human; settings: U87-MG; 4 μM AON-MG23-02; 48 hours; vs untreated, 2 μM Osimertinib, 100 μM CaCCinh-A01, and their combination
Method: as §1

[7] = tested on: ANO1; test: Western blot: AON-MG23-02 derivatives, ANO1 protein expression in glioblastoma cell line; assay type: cell-based, human; settings: U87-MG; 0, 8, 16, and 32 μM; 48 hours; compared to the untreated control
Method: (§2) The inhibitory effects of AON-MG23-02 derivatives AON-MG23-05, AON-MG23-06, AON-MG23-07, and AON-MG23-08 on ANO1 and EGFR protein expression in a glioblastoma cell line were compared. A human glioblastoma cell line U87-MG was seeded at a density of 100×10^4 cells/dish in a 60 mm dish, and cultured for 24 hours. Thereafter, the cells were treated with 0, 8, 16, and 32 μM of the AON-MG23-05, AON-MG23-06, AON-MG23-07, and AON-MG23-08 derivatives, respectively, and cultured for 48 hours. The cultured cells were harvested, and the harvested cells were lysed for Western blotting. An anti-ANO1 antibody (Abcam, ab53212), an anti-pEGFR antibody (Cell Signaling, #4407S), an anti-EGFR antibody (Cell Signaling, #4267S), and an anti-ACTIN antibody (sigma, #A2066) were used as antibodies for Western blotting. Protein concentration was quantified using the […] (a protein quantitation assay, a bovine serum albumin assay) (Pierce, Cat. 23225). […] The amount of each protein was quantified and analyzed using Image J software.

[8] = tested on: U87-MG; test: Matrigel invasion (metastasis inhibition) of AON-MG23-02 derivatives in human glioblastoma; assay type: cell-based; settings: 0, 8, 16, and 32 μM, 24 hours, compared to the untreated control
Method: A human glioblastoma cell line U87-MG was seeded at a density of 8×10^4 cells/well on the top of a Matrigel-coated filter (Transwell invasion chambers, Corning), and then treated with 0, 8, 16, and 32 μM of each of the compound derivatives AON-MG23-05, AON-MG23-06, AON-MG23-07, and AON-MG23-08 of the present invention, and cultured at 37 °C in a CO2 incubator for 24 hours. After the culturing was completed, the cells were fixed and stained using a Diff-Quick stain kit (Sysmex, Kobe, Japan). Images of the stained cells were taken under a microscope, the cells were counted using Image J software, and statistical analysis was then performed.

[9] = tested on: EGFR; test: Western blot: AON-MG23-02 derivatives, EGFR protein expression in glioblastoma cell line; assay type: cell-based, human; settings: U87-MG; 0, 8, 16, and 32 μM; 48 hours; compared to the untreated control
Method: as §2

| SMILES | degree of penetration into Matrigel [1] | inhibition of proliferation of U87-MG cells [2] | expression of ANO1 protein (derivatives) [7] | degree of penetration into Matrigel (derivatives) [8] | expression of EGFR protein (derivatives) [9] | other results |
| --- | --- | --- | --- | --- | --- | --- |
| COc1cc(N2CCC(N3CCN(C)CC3)CC2)ccc1Nc1ncc(Cl)c(Nc2ccccc2N(C2CC2)S(C)(=O)=O)n1 [AON-MG23-01, N-(2-((5-chloro-2-((2-methoxy-4-(4-(4-methylpiperazin-1-yl)piperidin-1-yl)phenyl)amino)pyrimidin-4-yl)amino)phenyl)-N-cyclopropylmethanesulfonamide] | reduced degree of penetration into Matrigel compared to the untreated control | inhibits the proliferation of U87-MG cells | – | – | – | – |
| COc1cc(N2CCC(N(C)C)CC2)ccc1Nc1ncc(Cl)c(Nc2ccccc2N(C2CC2)S(C)(=O)=O)n1 [AON-MG23-02, N-(2-((5-chloro-2-((4-(4-(dimethylamino)piperidin-1-yl)-2-methoxyphenyl)amino)pyrimidin-4-yl)amino)phenyl)-N-cyclopropylmethanesulfonamide] | reduced degree of penetration into Matrigel compared to the untreated control | inhibits the proliferation of U87-MG cells | – | – | – | degree of penetration into Matrigel (comparison with EGFR inhibitor and ANO1 inhibitor) [3]: reduced degree of penetration into Matrigel compared to the untreated control, the EGFR inhibitor-treated group, and the ANO1 inhibitor-treated group; expression of pEGFR protein (comparison) [4]: reduces the expression of ANO1, EGFR, and pEGFR proteins compared to the untreated control, the EGFR inhibitor-treated group, the ANO1 inhibitor-treated group, and the EGFR inhibitor and ANO1 inhibitor combination-treated group; expression of ANO1 protein (comparison) [5]: reduces the expression of ANO1, EGFR, and pEGFR proteins compared to the untreated control, the EGFR inhibitor-treated group, the ANO1 inhibitor-treated group, and the EGFR inhibitor and ANO1 inhibitor combination-treated group; expression of EGFR protein (comparison) [6]: reduces the expression of ANO1, EGFR, and pEGFR proteins compared to the untreated control, the EGFR inhibitor-treated group, the ANO1 inhibitor-treated group, and the EGFR inhibitor and ANO1 inhibitor combination-treated group |
| O=C1c2ccccc2CN1Cc1ccc(CCN(CCO)Cc2ccc3ccccc3c2)cc1 [AON-MG23-05, 2-(4-(2-((2-hydroxyethyl)(naphthalen-2-ylmethyl)amino)ethyl)benzyl)isoindolin-1-one] | – | – | reduced expression of ANO1 and EGFR proteins compared to the untreated control | reduced degree of penetration into Matrigel compared to the untreated control | reduced expression of ANO1 and EGFR proteins compared to the untreated control | – |
| CCN(Cc1ccc2ccccc2c1)CC(O)c1ccc(CN2Cc3ccccc3C2=O)cc1 (stereo not shown) [AON-MG23-06, 2-(4-(2-(ethyl(naphthalen-2-ylmethyl)amino)-1-hydroxyethyl)benzyl)isoindolin-1-one] | – | – | – | reduced degree of penetration into Matrigel compared to the untreated control | – | – |
| O=C1c2ccccc2CN1Cc1ccc(CCP(=O)(Cc2ccc3ccccc3c2)Cc2ccc3ccccc3c2)cc1 [AON-MG23-07, 2-(4-(2-(bis(naphthalen-2-ylmethyl)phosphoryl)ethyl)benzyl)isoindolin-1-one] | – | – | – | reduced degree of penetration into Matrigel compared to the untreated control | – | – |
| NC(=O)N(CCc1ccc(CN2Cc3ccccc3C2=O)cc1)Cc1ccc2ccccc2c1 [AON-MG23-08, 1-(naphthalen-2-ylmethyl)-1-(4-((1-oxoisoindolin-2-yl)methyl)phenethyl)urea] | – | – | reduced expression of ANO1 and EGFR proteins compared to the untreated control | reduced degree of penetration into Matrigel compared to the untreated control | reduced expression of ANO1 and EGFR proteins compared to the untreated control | – |
